Laboratory results as given in patent publication US20060079453A1, “Hla binding peptides and their uses” (priority 2002, published 2006).
pIC50: −log10 of the molar value. Like-named read-outs stand apart in the source and are kept apart here. No end group written: not given here.

Columns and labels:
Assay in all cases: biochemical
Type in all cases: binding
HLA-DR DRB1*0401 (DR4) = HLA-DR DRB1*0401 (DR4) (Homo sapiens, UniProt P01903+P01911, A100K/A169T/F76Y/I96L/K127E/L162R/M171V/N62H/P40V/Q125Y/R42H/S133A/S149N/S66Y/V115G/V209L/W38E); conditions: DRB1 *0401
HLA-DR DRB1*0101 (DR1) = HLA-DR DRB1*0101 (DR1) (Homo sapiens, UniProt P01903+P01911, A100R/D57E/F55L/F60I/F76Y/I96L/L162R/M171V/P40L/Q125E/R42F/V115G/Y59C)
HLA-DR DRB1*0901 (DR9) = HLA-DR DRB1*0901 (DR9) (Homo sapiens, UniProt P01903+P01911, A100R/A103E/D57H/D86V/F55Y/F60I/F76Y/I96F/K127E/L162R/M171V/P40D/Q125H/Q99R/R33Q/R42F/S133A/S66N/T210M/V115G/W38K/Y107V/Y59G/Y89S); conditions: DRB1 *0901
HLA-DR DRB1*1501 (DR15) = HLA-DR DRB1*1501 (DR15) (Homo sapiens, UniProt P01903+P01911)
HLA-DR DRB5*0101 (DR51) = HLA-DR DRB5*0101 (DR51) (Homo sapiens, UniProt P01903+Q30154)
HLA-DR DRB4*0101 (DR53) = HLA-DR DRB4*0101 (DR53) (Homo sapiens, UniProt P01903+P13762, G164S)
HLA-DR DRB1*1302 (DR13) = HLA-DR DRB1*1302 (DR13) (Homo sapiens, UniProt P01903+P01911, A100E/A169T/K41T/L162R/M171V/P40S/Q125H/Q178H/Q39Y/Q99D/R42S/S66N/T262R/V115G/W38E/Y61H)
Sequence of HLA-DR DRB1*1302 (DR13) (P01903 26-254 limits assumed, other chains not shown): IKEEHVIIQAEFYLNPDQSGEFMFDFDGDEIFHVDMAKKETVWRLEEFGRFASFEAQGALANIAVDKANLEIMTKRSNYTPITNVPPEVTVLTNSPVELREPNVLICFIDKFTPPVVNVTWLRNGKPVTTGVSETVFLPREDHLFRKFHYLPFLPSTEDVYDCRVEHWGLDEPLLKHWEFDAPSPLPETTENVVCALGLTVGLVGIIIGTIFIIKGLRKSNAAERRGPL

HLA-DR DRB3*0101 (DR52) = HLA-DR DRB3*0101 (DR52) (Homo sapiens, UniProt P01903+P79483)
HLA-DR DRB1*0701 (DR7) = HLA-DR DRB1*0701 (DR7) (Homo sapiens, UniProt P01903+P01911, A100R/A102G/A103Q/D57E/D86V/E43K/F76Y/K127E/L162R/M171V/P40G/Q125H/Q99D/R33Q/R42Y/R54Q/S133A/S66F/T210M/V115G/Y107V/Y59L/Y89S)
HLA-DR DRB1*1101 (DR11) = HLA-DR DRB1*1101 (DR11) (Homo sapiens, UniProt P01903+P01911, A100R/A169T/A87E/I96F/K41T/L162R/M171V/P40S/Q125H/Q178H/Q39Y/Q99D/R42S/S66Y/T262R/V115G/W38E)
Sequence of HLA-DR DRB1*1101 (DR11) (P01903 26-254 limits assumed, other chains not shown): as above

HLA-DR DRB1*0301 (DR3) = HLA-DR DRB1*0301 (DR3) (Homo sapiens, UniProt P01903+P01911, A100K/A102G/A103R/A169T/F55Y/I96L/K41T/L162R/M171V/P40S/Q125H/Q178H/Q39Y/R42S/S66N/T106N/T262R/W38E/Y61H)
Sequence of HLA-DR DRB1*0301 (DR3) (P01903 26-254 limits assumed, other chains not shown): as above

Molecule	pIC50 (HLA-DR DRB1*0401 (DR4))	pIC50 (HLA-DR DRB1*0101 (DR1); DRB1 *0101)	pIC50 (HLA-DR DRB1*0901 (DR9))	pIC50 (HLA-DR DRB1*1501 (DR15); DRBI *1501)	pIC50 (HLA-DR DRB5*0101 (DR51); DRB5 *0101)	pIC50 (HLA-DR DRB4*0101 (DR53); DRB4 *0101)	pIC50 (HLA-DR DRB1*1302 (DR13); DRBI *1302)	pIC50 (HLA-DR DRB3*0101 (DR52))	pIC50 (HLA-DR DRB1*0701 (DR7); DRB1 *0701)	pIC50 (HLA-DR DRB1*1101 (DR11); DRB1 *1101)	pIC50 (HLA-DR DRB1*0301 (DR3))	pIC50 (HLA-DR DRB1*0101 (DR1))	pIC50 (HLA-DR DRB1*1101 (DR11))	pIC50 (HLA-DR DRB1*1501 (DR15))	pIC50 (HLA-DR DRB5*0101 (DR51))	pIC50 (HLA-DR DRB4*0101 (DR53))	pIC50 (HLA-DR DRB1*1302 (DR13))	pIC50 (HLA-DR DRB1*0701 (DR7))
CC(C)C[C@H](NC(=O)CNC(=O)[C@H](CC(N)=O)NC(=O)[C@H](Cc1ccc(O)cc1)NC(=O)[C@@H](NC(=O)[C@H](CC(=O)O)NC(=O)[C@H](CC(C)C)NC(=O)[C@H](C)N)C(C)C)C(=O)N[C@@H](CC(C)C)C(=O)N1CCC[C@H]1C(=O)N1CCC[C@H]1C(=O)N[C@@H](Cc1ccc(O)cc1)C(=O)N[C@@H](C)C(=O)N[C@@H](CO)C(=O)N[C@@H](CS)C(=O)O	6.31	7.74	4.06	5.96	3.94	< 5.00	< 4.46	< 4.83	< 4.08									
CC[C@H](C)[C@H](NC(=O)[C@H](CC(N)=O)NC(=O)[C@H](CCC(=O)O)NC(=O)[C@H](C)NC(=O)[C@H](CCCCN)NC(=O)[C@H](CC(C)C)NC(=O)[C@H](CCC(=O)O)NC(=O)[C@H](CC(=O)O)NC(=O)[C@@H](N)CC(C)C)C(=O)N[C@@H](CCCCN)C(=O)N[C@@H](CCCCN)C(=O)N[C@@H](Cc1ccccc1)C(=O)N[C@@H](CC(C)C)C(=O)N[C@@H](Cc1ccc(O)cc1)C(=O)N[C@@H](CC(N)=O)C(=O)O	5.31	5.94	4.89		6.82	6.10		6.26	5.13	6.49								
CC(C)C[C@H](NC(=O)CNC(=O)[C@H](CC(N)=O)NC(=O)[C@H](Cc1ccc(O)cc1)NC(=O)[C@@H](NC(=O)[C@H](CC(=O)O)NC(=O)[C@@H](N)CC(C)C)C(C)C)C(=O)N[C@@H](CC(C)C)C(=O)N1CCC[C@H]1C(=O)N1CCC[C@H]1C(=O)N[C@@H](Cc1ccc(O)cc1)C(=O)N[C@@H](C)C(=O)N[C@@H](CO)C(=O)N[C@@H](CS)C(=O)N[C@@H](Cc1c[nH]cn1)C(=O)O	6.46	7.82	4.50	5.52	4.59	< 4.96	< 4.46	< 4.83	< 4.08									
CC[C@H](C)[C@H](NC(=O)CNC(=O)[C@H](Cc1ccc(O)cc1)NC(=O)[C@H](CC(C)C)NC(=O)[C@H](CO)NC(=O)[C@H](CC(C)C)NC(=O)[C@H](CC(C)C)NC(=O)[C@H](CO)NC(=O)[C@H](CC(C)C)NC(=O)[C@H](CCC(=O)O)NC(=O)[C@H](CO)NC(=O)[C@@H](N)CC(C)C)C(=O)N[C@@H](Cc1c[nH]cn1)C(=O)N[C@@H](CCCCN)C(=O)N[C@@H](CCC(N)=O)C(=O)O	5.81	6.32	5.84	7.35	8.14	7.10		< 4.88	4.68	5.78	< 4.09							
C[C@@H](O)[C@H](NC(=O)[C@H](CCCCN)NC(=O)[C@H](CCC(=O)O)NC(=O)[C@H](CCC(=O)O)NC(=O)CNC(=O)[C@H](Cc1ccccc1)NC(=O)[C@H](CCCNC(=N)N)NC(=O)[C@H](Cc1ccccc1)NC(=O)[C@H](CO)NC(=O)[C@H](CCC(=O)O)NC(=O)[C@H](CCC(=O)O)NC(=O)[C@@H]1CCCN1C(=O)[C@@H]1CCCN1)C(=O)N[C@H](C(=O)N1CCC[C@H]1C(=O)N[C@@H](CO)C(=O)O)[C@@H](C)O		< 5.60			< 5.54			< 4.85	< 4.90	< 5.00	< 3.05							
CC[C@H](C)[C@H](NC(=O)[C@H](Cc1c[nH]cn1)NC(=O)[C@H](CCSC)NC(=O)[C@H](CCCCN)NC(=O)[C@@H](NC(=O)[C@H](CCCCN)NC(=O)[C@H](CCC(N)=O)NC(=O)[C@@H](NC(=O)[C@H](CO)NC(=O)[C@H](Cc1ccccc1)NC(=O)[C@H](CC(N)=O)NC(=O)CNC(=O)[C@@H](N)[C@@H](C)O)[C@@H](C)O)C(C)C)C(=O)N[C@@H](Cc1c[nH]cn1)C(=O)N[C@@H](CO)C(=O)O		4.95	5.84		5.72	6.29	5.21	< 4.93	5.03	4.93								
CSCC[C@H](NC(=O)[C@H](CC(=O)O)NC(=O)[C@H](Cc1ccc(O)cc1)NC(=O)[C@H](CC(C)C)NC(=O)[C@@H]1CCCN1C(=O)[C@H](Cc1c[nH]cn1)NC(=O)[C@@H]1CCCN1C(=O)[C@H](Cc1ccccc1)NC(=O)[C@H](CO)NC(=O)[C@H](Cc1c[nH]cn1)NC(=O)[C@H](CO)NC(=O)[C@@H](NC(=O)[C@H](CCC(N)=O)NC(=O)[C@H](Cc1ccccc1)NC(=O)[C@@H](N)C(C)C)C(C)C)C(=O)O	7.60	7.80	7.77	5.62		< 4.90	7.08	4.63	7.29		< 4.12							
CC[C@H](C)[C@H](NC(=O)[C@H](Cc1c[nH]c2ccccc12)NC(=O)[C@@H](NC(=O)[C@@H](N)C(C)C)[C@@H](C)O)C(=O)NCC(=O)N[C@@H](C)C(=O)N[C@@H](C)C(=O)N1CCC[C@H]1C(=O)N[C@@H](CC(C)C)C(=O)N[C@H](C(=O)N[C@@H](CC(C)C)C(=O)N[C@@H](CO)C(=O)N[C@@H](CCCNC(=N)N)C(=O)N[C@H](C(=O)N[C@H](C(=O)O)C(C)C)[C@@H](C)CC)[C@@H](C)CC	5.10	8.09	7.09			7.06	5.63	< 4.97	6.71	5.75	< 4.09							
CSCC[C@H](NC(=O)[C@@H](N)Cc1c[nH]c2ccccc12)C(=O)N[C@@H](Cc1ccc(O)cc1)C(=O)N[C@@H](Cc1ccc(O)cc1)C(=O)N[C@@H](Cc1c[nH]cn1)C(=O)NCC(=O)N[C@@H](CCC(N)=O)C(=O)N[C@@H](CCCNC(=N)N)C(=O)N[C@@H](Cc1c[nH]cn1)C(=O)N[C@@H](CO)C(=O)N[C@@H](CC(=O)O)C(=O)N[C@@H](CCC(=O)O)C(=O)N[C@@H](Cc1c[nH]cn1)C(=O)N[C@@H](Cc1c[nH]cn1)C(=O)N[C@@H](Cc1c[nH]cn1)C(=O)O		≤ 4.30			< 5.30			< 5.11	< 3.60	< 5.00	< 3.05							
CSCC[C@H](NC(=O)[C@@H]1CCCN1C(=O)[C@H](CC(=O)O)NC(=O)[C@@H](N)Cc1ccc(O)cc1)C(=O)N[C@@H](Cc1ccccc1)C(=O)N[C@@H](CCCCN)C(=O)N[C@@H](Cc1ccc(O)cc1)C(=O)N[C@@H](Cc1c[nH]cn1)C(=O)N[C@@H](CC(C)C)C(=O)N[C@H](C(=O)N[C@H](C(=O)N[C@@H](C)C(=O)N[C@@H](CCC(N)=O)C(=O)N[C@H](C(=O)N[C@@H](CCCNC(=N)N)C(=O)O)C(C)C)C(C)C)[C@@H](C)O	7.72	8.05		5.87	7.21	6.26	5.99	5.09	6.80	6.60	< 4.12							
AATYNFAVLKLMGRGTKF					7.74	5.91		4.15		7.77	< 4.28							
GAPLGGALRALAHGV	4.82							< 4.29			< 3.31	7.17	7.08	5.68	5.27	5.31	6.47	5.85
LLYTFRKDMDKVETF	4.97	< 4.75	< 4.23	6.05			< 4.84	6.03	4.27	5.10	4.62							
QKGRGYRGQHQAHSLERVCH	7.06			< 5.04	5.01	4.75		< 3.30		4.52	< 4.32							
RNFYVINRLTGYLRN	6.66	8.77	5.12	7.74	8.25		8.03	6.16	6.28	7.26	5.66							
